Source: PMC10636063, “Progesterone activation of β1-containing BK channels involves two binding sites” (Nature Communications, 2023)
Where “and” joins values, the source holds several entries; their conditions need not be identical. Equal values may be shown once.

How the values were obtained:
[1] = target: T1, slo1 (cbv1 isoform)+β1 BK channels (Rattus norvegicus, UniProt P97678); test: Channel activity (NPo) in POPE/POPS planar lipid bilayers, cbv1+β1; type: biochemical; conditions: for normalized NPo, time course Fig 2E: 10uM PROG; for action on channel activity (NPo): 10 μM, cis chamber, vs DMSO
T1 construct: made in house; host or cells: CHO cells, transient transfection; sucrose-gradient membrane preparation
Excerpt: BK channel-forming slo1 cDNA (cbv1 isoform; AY330293) was cloned from rat cerebral artery SM cells, and inserted into pcDNA3.1 vector as described. BK β1 cDNA (KCNMB1 product; NP_011452; FJ154955) were isolated from rat cerebral artery SM cells and cloned as described. β4 cDNA (KCNMB4; NP_055320; AY028605) were generously provided by Dr. Ligia Toro. CHO cells were transiently transfected with cbv1 ± β1-, or β4-carrying pcDNA3.1 using X-tremeGENE HP (Sigma-Aldrich). Mutations to β1/4 cDNAs were conducted by Genscript, with sequences being confirmed to be >99% identical to KCNMB1 product; NP_011452 or β4 KCNMB4; NP_055320; respectively. β1/4 and mutant constructs were flag-tagged (DYKDDDDK-tag) by Genscript services for subsequent immunoprecipitation and use in microscale thermophoresis studies.
Proteins for electrophysiological recordings in artificial lipid bilayers remained untagged. Cells were transiently transfected as described above, pelleted and re-suspended on ice in 10 ml of buffer solution of the following composition (mM): 30 KCl, 2 MgCl2, 10 HEPES, 5 EGTA; pH 7.2. A membrane preparation was obtained using a sucrose gradient as described. Aliquots were stored at −80 °C. BK channel-mediated ionic current was recorded in planar lipid bilayers consisting of a POPE:POPS 3:1 (w/w) mixture. Lipid mixtures were dried under N2 and re-suspended in 25 mg/ml of n-decane BK currents following incorporation into horizontal bilayers at 300/30 mM cis/trans gradient as detailed elsewhere. Ion currents were obtained during a 10-min gap-free recording at 0 mV in the presence of 0.01, 10 μM PROG, 10 μM PROG-oxime, or vehicle control (dimethyl sulfoxide; DMSO). Currents were obtained in gap-free mode using a Warner BC-525D amplifier, low pass-filtered at 1 kHz and sampled at 5 kHz with Digidata 1550B/pCLAMP 11 (Molecular Devices). For comparison with previous data from us[16],[17],[45]–[47], studies were conducted at 20–22 °C. […]
Patch-clamp and bilayer data were analyzed using Clampfit 10.7 software (Molecular Devices). NPo was used as an index of channel steady-state activity where N = number of channels in the patch (defined as a maximal number of opening levels at Po≤1) and Po=single channel open probability. Drug-induced NPo changes were determined by comparing baseline NPo (i.e., NPo with the patch/cell perfused with bath solution) to the NPo from the same patch/cell exposed to the agent under study (DMSO/PROG/oxime) dissolved in bath solution. NPo and mean open time values were automatically calculated using Clampfit 10.7, the latter using a 50% threshold detection event.

[2] = test system: de-endothelialized, pressurized MCA segments (C57BL/6); test: Cerebral artery diameter in vitro, de-endothelialized pressurized MCA segments; parameters: species or system mouse
Excerpt: Eight-12 week-old C57BL/6J and KCNMB1^−/− on C57BL/6 background mice of both sexes were deeply anesthetized with isoflurane via inhalation in a tightly sealed jar. Resistance size MCAs (~100 μm in external diameter) were dissected out of the mouse brains after animal euthanasia with sharp scissors. For de-endothelialized records, the endothelium was removed by passing an air bubble into the vessel lumen for 90 s[30]. This method has been consistently used by our group and validated using endothelium-dependent versus endothelium-independent vasodilators[16],[26]. Arteries were cannulated as previously described by our group[26],[40]. MCAs were cut into 5 to 10 mm-long segments under a microscope (Nikon SMZ645). The segment was cannulated at each end, and the artery exterior was continuously perfused with physiologic sodium saline (PSS) of the following composition (mM): 119 NaCl, 4.7 KCl, 1.2 KH2PO4, 1.6 CaCl2, 1.2 MgSO4, 0.023 EDTA, 11 glucose, 24 NaHCO3, pH=7.4. PSS was continuously bubbled with an O2/CO2/N2 (21/5/74%) gas mixture and maintained at 35–37 °C. The artery external wall diameter was measured using the automatic edge-detection function of lonWizard software (lonOptix) via Sanyo VCB-3512T camera (Sanyo Electric Co.). Arteries were first incubated at an intravascular pressure of 10 mm Hg for 10 min. Then intravascular pressure was increased to 60 mmHg and held steady throughout the experiment to induce myogenic tone development and maintenance[19],[30],[51]. Each artery segment was exposed to PROG, PROG-oxime (in presence and absence of 1 µM paxilline) only once to avoid development of desensitization during repeated applications of PROG-containing solution. To determine arterial viability, arterial contractility was probed with a high KCl solution at the end of each experiment. The high KCl solution was composed of the following composition (mM): 63.7 NaCl, 60 KCl, 1.2 KH2PO4, 1.2 MgSO4, 0.023 EDTA, 11 glucose, 24 NaHCO3, 1.6 CaCl2, pH=7.4. Like PSS, the high-KCl solution was continuously bubbled with O2/CO2/N2 (21/5/74%) gas mixture and maintained at 35–37 °C.

[3] = 10 μM in the presence of 1 μM paxilline

T1 sequence (P97678 whole entry, canonical isoform): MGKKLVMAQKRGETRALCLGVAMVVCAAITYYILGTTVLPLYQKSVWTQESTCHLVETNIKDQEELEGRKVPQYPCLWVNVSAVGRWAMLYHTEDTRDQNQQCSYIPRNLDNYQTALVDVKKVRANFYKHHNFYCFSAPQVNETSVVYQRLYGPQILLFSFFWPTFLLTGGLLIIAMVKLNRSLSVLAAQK
T1 sequence (Q62976 1-1148 isoform Q62976-2 partner): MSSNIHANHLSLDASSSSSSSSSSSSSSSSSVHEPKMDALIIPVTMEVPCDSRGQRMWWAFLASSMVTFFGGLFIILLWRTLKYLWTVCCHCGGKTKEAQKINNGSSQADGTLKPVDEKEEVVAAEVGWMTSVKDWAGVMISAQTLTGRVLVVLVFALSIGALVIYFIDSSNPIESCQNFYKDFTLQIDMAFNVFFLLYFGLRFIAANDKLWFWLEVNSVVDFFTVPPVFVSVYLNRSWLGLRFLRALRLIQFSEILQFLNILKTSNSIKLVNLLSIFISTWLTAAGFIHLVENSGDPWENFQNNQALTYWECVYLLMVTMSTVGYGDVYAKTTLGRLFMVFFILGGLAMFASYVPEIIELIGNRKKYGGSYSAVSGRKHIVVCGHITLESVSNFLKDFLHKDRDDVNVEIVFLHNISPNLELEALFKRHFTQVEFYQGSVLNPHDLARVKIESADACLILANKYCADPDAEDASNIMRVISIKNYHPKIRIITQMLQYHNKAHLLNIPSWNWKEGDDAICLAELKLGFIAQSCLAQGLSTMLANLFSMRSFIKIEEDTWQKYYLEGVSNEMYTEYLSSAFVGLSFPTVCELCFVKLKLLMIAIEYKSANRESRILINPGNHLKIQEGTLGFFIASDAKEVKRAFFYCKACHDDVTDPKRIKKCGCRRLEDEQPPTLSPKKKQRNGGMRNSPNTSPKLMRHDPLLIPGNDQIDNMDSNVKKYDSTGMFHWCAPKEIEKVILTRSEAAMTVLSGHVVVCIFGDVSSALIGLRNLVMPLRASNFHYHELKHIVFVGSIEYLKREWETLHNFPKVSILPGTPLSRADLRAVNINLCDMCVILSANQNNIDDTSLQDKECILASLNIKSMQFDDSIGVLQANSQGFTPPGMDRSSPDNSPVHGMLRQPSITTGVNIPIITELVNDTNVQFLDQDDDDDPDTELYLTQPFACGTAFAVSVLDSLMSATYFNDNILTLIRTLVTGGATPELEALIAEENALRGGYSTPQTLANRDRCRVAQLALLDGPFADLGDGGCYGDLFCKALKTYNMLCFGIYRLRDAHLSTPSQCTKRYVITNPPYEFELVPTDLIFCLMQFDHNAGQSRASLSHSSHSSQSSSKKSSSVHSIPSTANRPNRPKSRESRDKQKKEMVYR

CC(=O)[C@H]1CC[C@H]2[C@@H]3CCC4=CC(=O)CC[C@]4(C)[C@H]3CC[C@]12C [PROG, Progesterone]
ECmax (EC100) of channel activation ([1]; 0 mV, 30 μM free Ca2+): 10 µM | concentrations at which the channel is activated ([1]; 0 mV, 30 μM free Ca2+): greater than 0.1 μM | NPo/NPobasal ([1]; 0.01 µM PROG, min 2, single records): 1.005 and 1.018 and 0.9275 and 1.019 | NPo/NPobasal ([1]; 0.01 µM PROG, min 3, single records): 1.029 and 1.009 and 1.058 and 0.9199 | NPo/NPobasal ([1]; 0.01 µM PROG, min 4, single records): 1.061 and 1.114 and 0.9928 and 1.089 | NPo/NPobasal of the maximal channel activity ([1]; 0.01 µM PROG, single records (Fig 1F)): 1.155 and 1 and 1.022 and 0.9918 | NPo/NPobasal ([1]; 0.1 µM PROG, min 2, single records): 0.9159 and 1.034 and 0.6663 and 1.012 | NPo/NPobasal ([1]; 0.1 µM PROG, min 3, single records): 0.7024 and 1.035 and 0.937 and 1.005 | NPo/NPobasal ([1]; 0.1 µM PROG, min 4, single records): 0.9376 and 1.037 and 1.102 and 0.9472 | NPo/NPobasal ([1]; 0.1 µM PROG, min 5, single records): 0.831 and 1.031 and 0.9946 | NPo/NPobasal ([1]; 0.1 µM PROG, min 6, single records): 0.9108 and 1.004 | NPo/NPobasal ([1]; 0.1 µM PROG, min 7, single records): 0.902 and 1.062 | NPo/NPobasal ([1]; 0.1 µM PROG, min 8, single records): 0.9384 and 1.053 | NPo/NPobasal ([1]; 0.1 µM PROG, min 9, single records): 0.9735 and 1.083 | NPo/NPobasal ([1]; 0.1 µM PROG, min 10, single records): 1.131 and 1.104 | NPo/NPobasal ([1]; 1 µM PROG, min 2, single records): 1.067 and 1.036 and 1.018 and 0.9862 | NPo/NPobasal ([1]; 1 µM PROG, min 3, single records): 1.103 and 0.992 and 0.9993 and 1.0069 | NPo/NPobasal ([1]; 1 µM PROG, min 4, single records): 0.9802 and 1.24 and 0.9671 and 1.426 | NPo/NPobasal ([1]; 1 µM PROG, min 5, single records): 1.982 and 1.288 and 1.134 and 1.31 | NPo/NPobasal ([1]; 1 µM PROG, min 6, single records): 1.589 and 1.543 and 1.405 and 1.4 | NPo/NPobasal ([1]; 1 µM PROG, min 7, single records): 1.339 and 1.38 | NPo/NPobasal ([1]; 1 µM PROG, min 8, single records): 1.498 and 1.434 | NPo/NPobasal ([1]; 1 µM PROG, min 9, single records): 1.121 and 1.382 | NPo/NPobasal ([1]; 1 µM PROG, min 10, single records): 1.43 and 1.377 | NPo/NPobasal ([1]; 3 µM PROG, min 3, single records): 1.768 and 1.125 and 1.174 | NPo/NPobasal ([1]; 3 µM PROG, min 4, single records): 2.026 and 1.046 and 1.706 | NPo/NPobasal ([1]; 3 µM PROG, min 9, single records): 2.184 and 1.286 | NPo/NPobasal ([1]; 3 µM PROG, min 10, single records): 2.295 and 1.4507 | normalized NPo, time course Fig 2E ([1]; cbv1+beta1, time 1 min (normalisation reference), columns = single bilayers): 1 | normalized NPo, time course Fig 2E ([1]; cbv1+beta1, time 2 min): 1.077 and 1.05 and 1.119 and 1.043 and 0.7556 and 0.908 and 1.053 | normalized NPo, time course Fig 2E ([1]; cbv1+beta1, time 6 min): 1.387 and 1.439 and 2.22 and 2.096 and 2.632 and 2.4507 and 1.714 | normalized NPo, time course Fig 2E ([1]; cbv1+beta1, time 7 min): 1.767 and 1.768 and 2.22 and 2.153 and 1.686 and 2.452 and 1.347 | normalized NPo, time course Fig 2E ([1]; cbv1+beta1, time 9 min): 1.702 and 2.262 and 1.688 and 2.653 and 1.535 and 1.822 | normalized NPo, time course Fig 2E ([1]; cbv1+beta1, time 10 min): 1.856 and 2.788 and 1.831 and 1.767 and 1.527 | action on channel activity (NPo) [1]: readily and robustly activated | NPo/NPobasal ([1]; 100 µM PROG, min 2, single records): 0.9793 and 1.054 and 0.898 | NPo/NPobasal ([1]; 100 µM PROG, min 3, single records): 1.51 and 1.02 and 1.024 | NPo/NPobasal ([1]; 100 µM PROG, min 4, single records): 1.597 and 1.676 and 0.9571 | NPo/NPobasal ([1]; 100 µM PROG, min 5, single records): 1.91 and 2.009 and 1.692 | NPo/NPobasal ([1]; 100 µM PROG, min 6, single records): 2.017 and 2.015 and 2.955 | NPo/NPobasal ([1]; 100 µM PROG, min 7, single records): 1.186 and 2.342 and 2.352 | NPo/NPobasal ([1]; 100 µM PROG, min 8, single records): 1.501 and 2.445 and 2.086 | NPo/NPobasal ([1]; 100 µM PROG, min 9, single records): 1.524 and 2.434 | NPo/NPobasal ([1]; 100 µM PROG, min 10, single records): 1.446 and 2.664 | vasoactive response of MCA segments [2, 3]: lost | vasoactive response of MCA segments ([2]; 10 μM, male and female mice): dilated MCA segments | percent changes in MCA diameter ([2]; male mice, 10 μM PROG, individual arterial segments): 4.2471% and 1.678% and 1.882% and 1.946% and 2.105% and 8.38% and 2.776% and 5.128% and 1.929% and 4.348%

CC(=O)C1CCC2C3CCC4=CC(=NOCC(=O)O)CCC4(C)C3CCC12C (stereo not drawn) [PROG-oxime, progesterone 3-(O-carboxymethyl)oxime]
NPo/NPobasal ([1]; 10 μM PROG-oxime, min 8, single records): 1.05 and 1.498 and 1.058 and 0.7956 and 1.316 | NPo/NPobasal ([1]; 10 μM PROG-oxime, min 9, single records): 1.025 and 1.49 and 0.9987 and 0.8873 and 1.604 | NPo/NPobasal ([1]; 10 μM PROG-oxime, min 10, single records): 1.45 and 1.329 and 1.113 and 0.8109 and 1.283 | maximal changes in channel activity (NPo/NPobasal) ([1]; 10 μM PROG-oxime, single records (Fig 3E)): 1.0077 and 0.9962 and 1.086 and 1.4825 and 1.776 and 1.183 | action on channel activity (NPo) [1]: did not differ from that evoked by vehicle control | vasoactive response of MCA segments [2, 3]: MCA constriction that was preserved | vasoactive response of MCA segments ([2]; 10 μM, male and female mice): failed to evoke MCA dilation
